# According to patent publication US10077237B2 (Sanofi, priority 2013, dated 2018):
# Values joined by “and” are separate entries in the source; they are usually repeats but may differ in a detail not shown here. Equal values may be shown once. Where a name gives a salt, the structure may show the parent alone.
# Biological target: T1, recombinant human AMPK complex, containing α2β1γ2 (Homo sapiens, UniProt P54646+Q9Y478)
# T1 construct: hsAMPKα2-552-His, hsAMPKβ1-2-270 and hsAMPKγ-2-569 respectively; hsAMPKβ1-2-270; hsAMPKγ-2-569; His (C); made in house; host or cells: Spodoptera frugiperda Sf21 (baculovirus)
# Experiment: AMPK in vitro activation assay (HTRF)
# Type: biochemical
# Settings: for EC50: HTRF, recombinant human α2β1γ2 AMPK, 200 μM ATP, biotinylated ACC-CREBp peptide, repeat determinations on separate lines; for Emax: potentiation of AMPK activity as percent over the basal signal (without compound)
# How it was run: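 HTRF phosphorylation read-out (Eu-cryptate anti-pS133-CREB, streptavidin-XL665) after a 45 min, 37° C kinase step. This step was initiated by a solution with 200 μM ATP and 2 or 0.08 μM biotinylated ACC-CREBp peptide. Beforehand, compound sat 30 min at room temperature with baculovirus/Sf21 α2β1γ2 in pH 7.0 HEPES buffer; EC50 derived from activation over basal.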
# T1 sequence (P54646 2-552): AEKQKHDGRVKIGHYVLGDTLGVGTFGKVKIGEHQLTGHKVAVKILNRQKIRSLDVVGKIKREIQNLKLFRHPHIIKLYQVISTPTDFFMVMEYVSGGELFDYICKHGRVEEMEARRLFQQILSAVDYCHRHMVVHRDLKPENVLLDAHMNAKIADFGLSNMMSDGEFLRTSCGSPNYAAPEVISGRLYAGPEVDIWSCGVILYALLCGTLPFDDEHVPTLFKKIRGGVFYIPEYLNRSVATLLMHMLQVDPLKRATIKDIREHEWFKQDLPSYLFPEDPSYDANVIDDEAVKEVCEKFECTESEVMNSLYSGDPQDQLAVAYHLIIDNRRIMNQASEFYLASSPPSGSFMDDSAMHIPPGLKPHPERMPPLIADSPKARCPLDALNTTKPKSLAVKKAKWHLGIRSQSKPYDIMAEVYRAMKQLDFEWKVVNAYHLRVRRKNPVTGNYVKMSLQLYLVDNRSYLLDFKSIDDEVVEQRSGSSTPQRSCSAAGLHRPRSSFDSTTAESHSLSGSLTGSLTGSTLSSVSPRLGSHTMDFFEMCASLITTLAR
# T1 sequence (Q9Y478 2-270): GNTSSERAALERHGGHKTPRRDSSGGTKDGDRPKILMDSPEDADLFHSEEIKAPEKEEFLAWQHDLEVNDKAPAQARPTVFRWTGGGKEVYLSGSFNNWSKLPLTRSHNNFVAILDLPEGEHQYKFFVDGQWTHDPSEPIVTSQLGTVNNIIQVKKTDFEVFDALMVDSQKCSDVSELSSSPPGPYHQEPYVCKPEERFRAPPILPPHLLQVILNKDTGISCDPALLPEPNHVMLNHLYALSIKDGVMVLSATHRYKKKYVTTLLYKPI
# T1 sequence (Q9UGJ0 2-569 partner limits assumed): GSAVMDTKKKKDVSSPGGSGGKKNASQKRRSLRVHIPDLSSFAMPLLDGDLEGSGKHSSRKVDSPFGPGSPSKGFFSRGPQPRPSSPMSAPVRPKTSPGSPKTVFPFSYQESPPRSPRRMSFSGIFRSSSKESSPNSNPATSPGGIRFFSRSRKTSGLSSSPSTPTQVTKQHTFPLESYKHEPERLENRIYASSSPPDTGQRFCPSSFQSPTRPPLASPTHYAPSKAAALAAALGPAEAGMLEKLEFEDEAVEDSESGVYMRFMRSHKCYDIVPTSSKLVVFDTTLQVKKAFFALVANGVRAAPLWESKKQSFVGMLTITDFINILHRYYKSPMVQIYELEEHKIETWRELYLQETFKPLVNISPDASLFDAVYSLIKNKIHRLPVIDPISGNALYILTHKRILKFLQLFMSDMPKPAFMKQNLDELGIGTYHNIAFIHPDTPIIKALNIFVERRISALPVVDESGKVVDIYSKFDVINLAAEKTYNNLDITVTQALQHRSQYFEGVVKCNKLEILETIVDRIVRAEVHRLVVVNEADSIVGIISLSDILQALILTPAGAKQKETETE
SMILES,EC50,Emax [%]
"O=C1Nc2cc(Cl)c(-c3ccc(N4CCOCC4)cc3)cc2C1=C(O)c1cc(C2CCCCC2)no1 [Compound 86, 6-chloro-3-[(3-cyclohexylisoxazol-5-yl)hydroxy-methylene]-5-(4-morpholinophenyl)indolin-2-one]",61 nM,155
"Cc1cc(C(O)=C2C(=O)Nc3cc(F)c(-c4ccc(C5(CO)CC5)cc4)cc32)on1 [Compound 72, 6-Fluoro-5-[4-(1-hydroxymethyl-cyclopropyl)phenyl]-3-[1-hydroxy-1-(3-methyl-isoxazol-5-yl)methylidene]-1,3-dihydro-indol-2-one]",2 nM,159
"Cc1cc(C(O)=C2C(=O)Nc3cc(F)c(-c4ccc(N5CCOCC5)cc4)cc32)on1 [Compound 29, 6-Fluoro-3-[1-hydroxy-1-(3-methyl-isoxazol-5-yl)-methylidene]-5-(4-morpholin-4-yl-phenyl)-1,3-dihydro-indol-2-one]",58 nM,157
"COc1cc(C(O)=C2C(=O)Nc3cc(Cl)c(-c4ccc(C5(O)CCOCC5)cc4)cc32)on1 [Compound 89, 6-chloro-3-[hydroxy-(3-methoxyisoxazol-5-yl)methylene]-5-[4-(4-hydroxytetrahydropyran-4-yl)phenyl]indolin-2-one]",7 nM,203
"Cc1cc(C(O)=C2C(=O)Nc3cc(Cl)c(-c4ccc(C5(CO)CC5)cc4)cc32)sn1 [Compound 23, 6-Chloro-5-[4-(1-hydroxymethyl-cyclopropyl)-phenyl]-3-[1-hydroxy-1-(3-methyl-isothiazol-5-yl)-methylidene]-1,3-dihydro-indol-2-one]",3 nM,158
"O=C1Nc2cc(Cl)c(-c3ccc4ccccc4c3)cc2C1=C(O)c1cccc(F)c1 [Compound 11, 6-Chloro-3-[1-(3-fluoro-phenyl)-1-hydroxy-methylidene]-5-naphthalen-2-yl-1,3-dihydro-indol-2-one]",4000 nM,95
"Cc1cc(C(O)=C2C(=O)Nc3cc(Cl)c(-c4ccc(OC(F)(F)F)cc4)cc32)on1 [Compound 58, 6-Chloro-3-[1-hydroxy-1-(3-methyl-isoxazol-5-yl)-methylidene]-5-(4-trifluoromethoxy-phenyl)-1,3-dihydro-indol-2-one]",1400 nM,212
"Cc1cc(C(O)=C2C(=O)Nc3cc(Cl)c(-c4ccc(F)cc4)cc32)on1 [Compound 30, 6-Chloro-5-(4-fluoro-phenyl)-3-[1-hydroxy-1-(3-methyl-isoxazol-5-yl)-methylidene]-1,3-dihydro-indol-2-one]",240 nM,108
"CN(C)c1ccc(-c2cc3c(cc2Cl)NC(=O)C3=C(O)c2ccc(C(=O)O)cc2)cc1 [Compound 9, 4-{[6-Chloro-5-(4-dimethylamino-phenyl)-2-oxo-1,2-dihydro-indolylidene]-hydroxy-methyl}-benzoic acid]",24 nM and 23 nM,120
"O=C1Nc2cc(Cl)c(-c3ccc(C4(CO)CC4)cc3)cc2C1=C(O)c1cccc(F)c1 [Compound 27, 6-Chloro-3-[1-(3-fluoro-phenyl)-1-hydroxy-methylidene]-5-[4-(1-hydroxymethyl-cyclopropyl)-phenyl]-1,3-dihydro-indol-2-one]",2 nM,129
"O=C1Nc2cc(Cl)c(-c3ccc(C4CC4)cc3)cc2C1=C(O)c1cccc(F)c1 [Compound 26, 6-Chloro-5-(4-cyclopropyl-phenyl)-3-[1-(3-fluoro-phenyl)-1-hydroxy-methylidene]-1,3-dihydro-indol-2-one]",440 nM,153
"Cc1cc(C(O)=C2C(=O)Nc3cc(Cl)c(-c4ccc(C5(CO)CC5)s4)cc32)on1 [Compound 45, 6-Chloro-5-[5-(1-hydroxymethyl-cyclopropyl)-thiophen-2-yl]-3-[1-hydroxy-1-(3-methyl-isoxazol-5-yl)-methylidene]-1,3-dihydro-indol-2-one]",230 nM,155

# Other lines, results leading:
EC50,Emax [%],SMILES
9 nM,223,"COc1cc(C(O)=C2C(=O)Nc3cc(Cl)c(-c4ccc(OC5CCC(O)CC5)cc4)cc32)on1 (stereo not drawn) [Compound 152, 6-chloro-5-[4-(4-hydroxycyclohexoxy)phenyl]-3-[hydroxy-(3-methoxyisoxazol-5-yl)methylene]indolin-2-one]"
15 nM,267,"COc1cc(C(O)=C2C(=O)Nc3cc(Cl)c(-c4ccc(N(C)C)c(F)c4)cc32)on1 [Compound 147, 6-chloro-5-[4-(dimethylamino)-3-fluoro-phenyl]-3-[hydroxy-(3-methoxyisoxazol-5-yl)methylene]indolin-2-one]"
4 nM,185,"Cc1cc(C(O)=C2C(=O)Nc3cc(Cl)c(-c4ccc(OCCCO)cc4)cc32)on1 [Compound 91, 6-chloro-3-[hydroxy-(3-methylisoxazol-5-yl)methylene]-5-[4-(3-hydroxypropoxy)phenyl]indolin-2-one]"
13 nM,207,"CC(C)Oc1cc(C(O)=C2C(=O)Nc3cc(Cl)c(-c4ccc(C5CC(O)C5)cc4)cc32)on1 (stereo not drawn) [Compound 166, 6-chloro-5-[4-(3-hydroxycyclobutyl)phenyl]-3-[hydroxy-(3-isopropoxyisoxazol-5-yl)methylene]indolin-2-one]"
0.3 nM,172,"COc1cc(C(O)=C2C(=O)Nc3cc(F)c(-c4ccc(-c5cccc(OC)c5O)cc4)c(F)c32)on1 [Compound 92, 4,6-difluoro-3-[hydroxy-(3-methoxyisoxazol-5-yl)methylene]-5-[4-(2-hydroxy-3-methoxy-phenyl)phenyl]indolin-2-one]"
0.3 nM,74,"CCOc1cc(C(O)=C2C(=O)Nc3cc(Cl)c(-c4ccc(-c5cccc(OC)c5O)cc4)cc32)on1 [Compound 105, 6-chloro-3-[(3-ethoxyisoxazol-5-yl)hydroxy-methylene]-5-[4-(2-hydroxy-3-methoxy-phenyl)phenyl]indolin-2-one]"
0.1 nM,155,"O=C1Nc2cc(Cl)c(-c3ccc(C4(CO)CC4)cc3)cc2C1=C(O)c1cc(C2CC2)no1 [Compound 106, 6-chloro-3-[(3-cyclopropylisoxazol-5-yl)hydroxy-methylene]-5-[4-[1-(hydroxymethyl)cyclopropyl]phenyl]indolin-2-one]"
0.1 nM,191,"O=C1Nc2cc(Cl)c(-c3ccc(C4(CO)CC4)cc3)cc2C1=C(O)c1ccncc1F [Compound 160, 6-chloro-3-[(3-fluoro-4-pyridyl)hydroxy-methylene]-5-[4-[1-(hydroxymethyl)cyclopropyl]phenyl]indolin-2-one]"
0.6 nM,133,"O=C1Nc2cc(F)c(-c3ccc(C4(CO)CC4)cc3)cc2C1=C(O)c1cc(C2CC2)no1 [Compound 119, 3-[(3-cyclopropylisoxazol-5-yl)hydroxy-methylene]6-fluoro-5-[4-[1-(hydroxymethyl)cyclopropyl]phenyl]indolin-2-one]"
26 nM,309,"COc1cc(C(O)=C2C(=O)Nc3cc(Cl)c(-c4ccc(OCc5cncs5)cc4)cc32)on1 [Compound 136, 6-chloro-3-[hydroxy-(3-methoxyisoxazol-5-yl)methylene]-5-[4-(thiazol-5-ylmethoxy)phenyl]indolin-2-one]"
20 nM and 10 nM,–,"COc1cc(C(O)=C2C(=O)Nc3cc(Cl)c(-c4ccc(OCCCO)cc4)cc32)on1 [Compound 129, 6-chloro-3-[hydroxy-(3-methoxyisoxazol-5-yl)methylene]-5-[4-(3-hydroxypropoxy)phenyl]indolin-2-one]"
0.5 nM,130,"COc1cc(C(O)=C2C(=O)Nc3cc(Cl)c(-c4ccc(C5(CO)CC5)cc4)cc32)ccn1 [Compound 158, 6-chloro-3-[hydroxy-(2-methoxy-4-pyridyl)methylene]-5-[4-[1-(hydroxymethyl)cyclopropyl]phenyl]indolin-2-one]"
25 nM,231,"COc1cc(C(O)=C2C(=O)Nc3cc(Cl)c(-c4ccc(OC5CCN(C)CC5)cc4)cc32)on1 [Compound 124, 6-chloro-3-[hydroxy-(3-methoxyisoxazol-5-yl)methylene]-5-[4-[(1-methyl-4-piperidyl)oxy]phenyl]indolin-2-one hydrochloride]"
0.3 nM,295,"O=C1Nc2cc(Cl)c(-c3ccc(C4(CO)CC4)cc3)cc2C1=C(O)c1ccco1 [Compound 126, 6-chloro-3-[2-furyl(hydroxy)methylene]-5-[4-[1-(hydroxymethyl)cyclopropyl]phenyl]indolin-2-one]"
0.5 nM,133,"COc1cc(C(O)=C2C(=O)Nc3cc(F)c(-c4ccc(C5(CO)CC5)cc4)cc32)on1 [Compound 118, 6-fluoro-3-[hydroxy-(3-methoxyisoxazol-5-yl)methylene]-5-[4-[1-(hydroxymethyl)cyclopropyl]phenyl]indolin-2-one]"
5 nM,187,"COc1cc(C(O)=C2C(=O)Nc3cc(Cl)c(-c4ccc(OCCCN5CCOCC5)cc4)cc32)on1 [Compound 99, 6-chloro-3-[hydroxy-(3-methoxyisoxazol-5-yl)methylene]-5-[4-(3-morpholinopropoxy)phenyl]indolin-2-one]"
95 nM,257,"COc1cc(C(O)=C2C(=O)Nc3cc(Cl)c(-c4cnc(N(C)C)nc4)cc32)on1 [Compound 145, 6-chloro-5-[2-(dimethylamino)pyrimidin-5-yl]-3-[hydroxy-(3-methoxyisoxazol-5-yl)methylene]indolin-2-one]"
